# Measured values taken from publication PMC8307938, “The Lysozyme Inhibitor Thionine Acetate Is Also an Inhibitor of the Soluble Lytic Transglycosylase Slt35 from Escherichia coli” (Molecules, 2021).
# What was measured:
# Slt35 = molecular target: T1, Slt35 (Escherichia coli, UniProt P41052); test: intrinsic fluorescence quenching titration (also turbidimetric inhibition assay, IC50 […]); type: binding
# T1 construct: gene mltB; N-terminal His-tag
# T1 sequence (P41052 19-361): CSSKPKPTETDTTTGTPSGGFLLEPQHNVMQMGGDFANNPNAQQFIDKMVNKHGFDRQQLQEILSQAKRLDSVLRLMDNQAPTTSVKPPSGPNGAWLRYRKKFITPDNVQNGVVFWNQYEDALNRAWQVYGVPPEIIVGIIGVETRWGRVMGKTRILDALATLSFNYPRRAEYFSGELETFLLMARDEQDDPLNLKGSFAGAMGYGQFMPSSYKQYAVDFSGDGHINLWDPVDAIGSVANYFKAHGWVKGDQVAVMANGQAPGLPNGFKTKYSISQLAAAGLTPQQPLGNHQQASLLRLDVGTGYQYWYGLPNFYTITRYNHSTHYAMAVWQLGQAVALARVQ
# hen egg white lysozyme = molecular target: T2, hen egg white lysozyme (Gallus gallus, UniProt P00698); test: as above; type: binding
# T2 construct: gene LYZ
# T2 sequence (P00698 19-147): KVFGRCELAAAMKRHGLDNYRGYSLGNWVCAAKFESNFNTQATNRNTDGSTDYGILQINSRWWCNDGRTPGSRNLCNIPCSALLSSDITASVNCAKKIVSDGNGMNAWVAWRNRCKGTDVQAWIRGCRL
# Asp52 = Asp52 (UniProt position 70, TDGSTDYGILQ); test: NMR; settings: not stated (presumably free, folded enzyme); cited from earlier work
# Glu35 = Glu35 (UniProt position 53, CAAKFESNFNT); test: NMR; settings: not stated (presumably free, folded enzyme); cited from earlier work
Compound,Kd (Slt35) [µM],Kd (hen egg white lysozyme) [µM],pKa (Asp52),pKa (Glu35)
Nc1ccc2nc3ccc(N)cc3[s+]c2c1 [thionine acetate],17.1 ± 1,18.6 ± 1.2,–,–
Hen egg white lysozyme (lysozyme C) (Gallus gallus),–,–,3.7,6.2
